Measured values reported in PMC2569088, “Hydroxylated Metabolites of the Polybrominated Diphenyl Ether Mixture DE-71 Are Weak Estrogen Receptor-α Ligands” (Environmental Health Perspectives, 2008).
Read-outs that look alike come from different tables or passages of the source.

Columns and labels:
[1] = test system: ERE-luciferase (ER-α-positive BG1Luc4E2 cells); assay: ERE-luciferase reporter assay in stably transfected BG1Luc4E2 ovarian cancer cells; format: cell-based, human; details: for EC50: determined using the chemical's own maximum effect set at 100%, luciferase 18 hr after addition; for Fold-induction at EC50: normalized to vehicle control (DMSO = 1)
Excerpt: MDA-MB-231 breast cancer cells ([Cailleau et al. 1978]) obtained from ATCC (American Type Culture Collection; Manassas, VA) and BG1Luc4E2 ovarian cancer cells, a gift from M. Denison (University of California, Davis, CA), were used in estrogen bioassays. BG1LucE2 cells are BG-1 ovarian cancer cells ([Geisinger et al. 1989]) stably transfected with an estrogen-responsive plasmid ([Rogers and Denison 2000]). Most cell culture media and supplements were purchased from Gibco/Invitrogen (Carlsbad, CA), except bovine growth serum (BGS; Hyclone, Logan, UT) and geneticin (G418; Sigma). Most charcoal-stripping reagents and endotoxin-free water were purchased from Sigma-Aldrich (St. Louis, MO) except Dulbecco’s phosphate-buffered saline (DPBS; Mediatech Inc., Herndon, VA). MDA-MB-231 cells were maintained in growth medium (GM): minimum essential media (MEM) supplemented with L-glutamine (2 mM), nonessential amino acids (0.1 mM), HEPES buffer (10 mM), […] insulin, and 5% vol/vol BGS]. BG1Luc4E2 cells were maintained in BG1-GM: alpha-MEM supplemented with HEPES buffer (10 mM), geneticin (0.4 g/L) and 10% vol/vol BGS. Basal medium (BM) for MDA-MB-231 cells consisted of a formulation similar to GM, except that phenol red–free MEM and 3% charcoal-stripped BGS were used. BM for BG1Luc4E2 cells (BG1-BM) consisted of phenol red–free Dulbecco’s modified Eagle media: Nutrient Mixture F12 (DMEM:F12; Gibco/Invitrogen) supplemented with HEPES buffer (10 mM) and 10% vol/vol charcoal-stripped BGS. BGS was stripped of estrogenic activity by methods described previously ([Biswas and Vonderhaar 1987]; [Lippman et al. 1976]).
(§1) We used two ERE-luciferase reporter gene systems: one transiently transfected and the other an established stably transfected cell line. For the transient system, ER-negative MDA-MB-231 breast cancer cells were plated in BM. Two days later cells were transfected using Tfx-20 (Promega, Madison, WI) with expression vectors for ER-α(HEG0; from P. Chambon, Université Louis Pasteur, Illkrich, France), the estrogen-responsive firefly luciferase reporter construct ERE2-pS2-luc ([Long et al. 2001]), and the control Renilla luciferase reporter construct pRL-TK (Promega). Cells were treated with test chemicals 1 hr after transfection, and assayed for luciferase activity after 18 hr. Results are expressed as the ratio of firefly luciferase to Renilla luciferase. For the stable reporter system, ER-positive BG1Luc4E2 ovarian cancer cells ([Rogers and Denison 2000]) were incubated in BG1-BM for 5 days before treatment; cells were then assayed for luciferase activity 18 hr after addition of the test compound.
All statistics were performed using GraphPad Prism, version 3.0a, for Macintosh (GraphPad Software, San Diego CA). For each analysis, we determined whether groups had unequal variances by Bartlett’s test. Group averages with equal variances were compared to each other either by one-way analysis of variance (ANOVA) with Tukey post-test or by unpaired t-test as appropriate. Group averages with unequal variances were compared to each other by t-test with Welch’s correction. […] All values are expressed as mean ± SD or SE as indicated. We considered groups statistically different if p < 0.05 by ANOVA with Tukey posttest or t-test (two-tailed). Dose–response studies were also subjected to regression analysis using a sigmoidal curve fitting model: […]

[2] = target: T1, recombinant ER-α (Homo sapiens, UniProt P03372); assay: Recombinant ER-α binding assay (3H-E2 displacement)
T1 construct: purchased Panvera/Invitrogen, Madison, WI
T1 sequence (P03372 1-595): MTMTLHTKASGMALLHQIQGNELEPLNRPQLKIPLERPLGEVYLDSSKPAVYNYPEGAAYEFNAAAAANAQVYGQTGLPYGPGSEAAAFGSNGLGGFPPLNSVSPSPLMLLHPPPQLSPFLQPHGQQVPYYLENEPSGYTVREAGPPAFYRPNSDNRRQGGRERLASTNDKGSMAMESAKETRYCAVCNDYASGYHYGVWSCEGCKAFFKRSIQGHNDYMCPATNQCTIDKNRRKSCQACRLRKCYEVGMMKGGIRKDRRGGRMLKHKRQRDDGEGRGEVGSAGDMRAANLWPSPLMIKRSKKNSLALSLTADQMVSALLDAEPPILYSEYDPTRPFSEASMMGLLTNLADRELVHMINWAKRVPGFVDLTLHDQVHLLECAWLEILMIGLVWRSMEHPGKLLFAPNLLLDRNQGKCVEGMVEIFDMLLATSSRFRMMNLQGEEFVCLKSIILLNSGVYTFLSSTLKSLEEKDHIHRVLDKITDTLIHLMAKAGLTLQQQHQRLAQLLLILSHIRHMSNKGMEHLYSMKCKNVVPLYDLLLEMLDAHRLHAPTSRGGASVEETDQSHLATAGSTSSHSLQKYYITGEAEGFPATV

[3] = test system: ERE-luciferase (BG1Luc4E2 cells); assay: ERE-luciferase induction in BG1Luc4E2 cells after cotreatment with 10^−11 M E2; format: cell-based, human; details: for Effect on E2-induced ERE-luciferase activity (cotreatment): compared with the maximal effect of E2 alone
Description: as §1
See “Material and Methods” for details. […] Error bars indicate SE.

[4] = test system: BG1Luc4E2 cells; details: 5–50 μM, alone or in combination with E2
[5] = test system: ERE-luciferase (MDA-MB-231 cells transfected with ER-α or BG1Luc4E2 cells); assay: ERE-luciferase induction by microsomal metabolites (rat liver microsome incubation products); details: female rat liver microsomes, complete NADPH generating system
Description: as §1

[6] = 1 nM 3H-E2, 0.6 nM recombinant ER-α, 4°C overnight

Row | SMILES | EC50 [1] | IC50 [2] | Relative affinity (E2 IC50 ÷ test chemical IC50 × 100) [2] | Effect on E2-induced ERE-luciferase activity (cotreatment) [3] | EC50 ([1]; Homo sapiens, read-out: EC50) | other results
1 | Oc1cc(Br)c(Br)cc1Br [2,4,5-TBP, 2,4,5-tribromophenol] | No effect |  |  |  |  | IC50 (concentration yielding 50% displacement of 3H-E2 from receptor) [2, 6]: No effect
2 | Oc1ccc(Br)cc1Br [2,4-DBP, 2,4-dibromophenol] | No effect |  |  |  |  | IC50 (concentration yielding 50% displacement of 3H-E2 from receptor) [2, 6]: No effect
3 | Oc1cc(Br)ccc1Oc1ccc(Br)cc1Br [2′-OH-BDE-28, 2′-OH - 2,4, 4′ - tribromodiphenyl] |  | 60 µM | 0.001% | able to antagonize the effect of E2 |  | Concentration at which antagonism of E2 was observed [3]: 50 µM; Toxicity (protein content of culture wells at harvest) [4]: no toxicity
4 | Oc1c(Br)ccc(Oc2ccc(Br)cc2Br)c1Br [3-OH-BDE-47, 3-OH-2, 2′, 4, 4′-tetrabromodiphenyl] |  |  | 0.001% | able to potentiate the ERE-luciferase induction of E2 |  | IC50 [2, 6]: 52 µM
5 | Oc1ccc(Oc2ccc(Br)cc2Br)c(Br)c1Br [4-OH-BDE-42, 4-HO-2, 2′,3, 4′-tetra-bromodiphenyl] |  | 14 µM | 0.005% | appeared to induce ERE-luciferase above the E2 maximum, but the effect was not statistically significant |  | 
6 | Oc1ccc(Oc2ccc(Br)cc2Br)c(Br)c1 [4′-OH-BDE-17, 4-OH-2, 2′, 4-tribromodiphenyl] |  | 2.1 µM | 0.03% | beyond the maximal effect of E2 alone | 4.7 µM | Relative effect (test chemical-to-E2 ratio of luciferase induction at EC50) [1]: 1.30 ratio; Relative estrogen potency (ratio of the E2 EC50 to EEP) [1]: 3.4 × 10^−7 ratio; Relative estrogenic potency compared with DE-71 [1]: approximately 10 fold; Emax ([1]; Homo sapiens, read-out: Estimated maximal effect higher than E2): 30%; Fold-induction at EC50 [1]: 4.3
7 | Oc1cc(Br)c(Oc2ccc(Br)cc2Br)cc1Br [4′-OH-BDE-49, 4′-OH-2, 2′,4, 5′-tetrabromodiphenyl] |  | 2.3 µM | 0.03% | beyond the maximal effect of E2 alone | 13 µM | Relative effect (test chemical-to-E2 ratio of luciferase induction at EC50) [1]: 0.36 ratio; Fold-induction at EC50 [1]: 1.2
8 | Oc1cc(Br)cc(Br)c1Oc1ccc(Br)cc1Br [6-OH-BDE-47, 6-OH-2, 2′,4, 4′-tetra-bromodiphenyl] | No effect | 11 µM | 0.001% | able to antagonize the effect of E2 |  | Concentration at which antagonism of E2 was observed [3]: 5 µM; Toxicity (protein content of culture wells at harvest) [4]: no toxicity
9 | C[C@]12CC[C@@H]3c4ccc(O)cc4CC[C@H]3[C@@H]1CC[C@@H]2O [E2, 1, 3, 5(10)-estra-triene-3, 17β-diol, reference compound] |  |  |  |  | 1.2e-06 µM | Test concentrations inducing ERE-luciferase [1]: above 10^−13 M; Decrease of activity by microsomal incubation [5]: 78%
